Two compounds from doi:10.1101/2024.08.13.607785v1 (biorxiv, 2024) can be followed below.

What all share (test): biochemical
Holding throughout (set-up): species or system human cell line lysate

The target of assay [1] is T1, Dual specificity mitogen-activated protein kinase kinase 5 ; MAP2K5 ; Q13163 (Homo sapiens, UniProt Q13163).
T1 sequence (Q13163 1-448): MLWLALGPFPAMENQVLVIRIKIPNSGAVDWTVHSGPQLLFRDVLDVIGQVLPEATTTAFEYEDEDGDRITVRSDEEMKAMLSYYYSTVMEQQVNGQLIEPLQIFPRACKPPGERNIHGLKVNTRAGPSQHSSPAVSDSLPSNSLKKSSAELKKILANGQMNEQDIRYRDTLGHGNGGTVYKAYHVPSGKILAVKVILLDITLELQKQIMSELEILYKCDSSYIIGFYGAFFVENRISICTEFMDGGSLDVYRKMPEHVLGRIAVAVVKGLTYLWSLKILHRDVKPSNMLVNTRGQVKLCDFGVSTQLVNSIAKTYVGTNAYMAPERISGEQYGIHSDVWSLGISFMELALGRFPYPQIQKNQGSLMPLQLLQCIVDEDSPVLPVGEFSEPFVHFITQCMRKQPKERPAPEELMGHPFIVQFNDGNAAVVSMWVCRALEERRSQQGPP

The target in assay [2] is Ephrin type-A receptor 5 ; EPHA5 ; P54756 (Homo sapiens, UniProt P54756).
In assay [3] the target is Ephrin type-B receptor 4 ; EPHB4 ; P54760 (Homo sapiens, UniProt P54760).
In assay [4] the target is Isoform 1A of Mitogen-activated protein kinase kinase kinase 7 ; MAP3K7 ; O43318-2 (Homo sapiens, UniProt O43318).
In assay [5] the target is Isoform 2 of Focal adhesion kinase 1 ; PTK2 ; Q05397-2 (Homo sapiens, UniProt Q05397).
In assay [6] the target is Isoform 2 of Proto-oncogene tyrosine-protein kinase Src ; SRC ; P12931-2 (Homo sapiens, UniProt P12931).
Assay [7] addresses Isoform 3 of Mitogen-activated protein kinase 8 ; MAPK8 ; P45983-3 (Homo sapiens, UniProt P45983).
The target of assay [8] is Mitogen-activated protein kinase 15 ; MAPK15 ; Q8TD08 (Homo sapiens, UniProt Q8TD08).
Assay [9] deals with Mitogen-activated protein kinase 3 ; MAPK3 ; P27361 (Homo sapiens, UniProt P27361).
For assay [10], the target named is Mitogen-activated protein kinase kinase kinase 3 ; MAP3K3 ; Q99759 (Homo sapiens, UniProt Q99759).
The target in assay [11] is Phosphatidylinositol 3-kinase catalytic subunit type 3 ; PIK3C3 ; Q8NEB9 (Homo sapiens, UniProt Q8NEB9).
Assay [12] has as its target Proto-oncogene tyrosine-protein kinase receptor Ret ; RET ; P07949 (Homo sapiens, UniProt P07949).
The target of assay [13] is RAC-alpha serine/threonine-protein kinase ; AKT1 ; P31749 (Homo sapiens, UniProt P31749).
The target of assay [14] is Serine/threonine-protein kinase D1 ; PRKD1 ; Q15139 (Homo sapiens, UniProt Q15139).
Assay [15] addresses Serine/threonine-protein kinase LATS1 ; LATS1 ; O95835 (Homo sapiens, UniProt O95835).
For assay [16], the target named is Serine/threonine-protein kinase PAK 4 ; PAK4 ; O96013 (Homo sapiens, UniProt O96013).
Assay [17] has as its target Serine/threonine-protein kinase PDIK1L ; PDIK1L ; Q8N165 (Homo sapiens, UniProt Q8N165).
The target in assay [18] is Serine/threonine-protein kinase RIO2 ; RIOK2 ; Q9BVS4 (Homo sapiens, UniProt Q9BVS4).
Assay [19] has as its target Serine/threonine-protein kinase/endoribonuclease IRE1 ; ERN1 ; O75460 (Homo sapiens, UniProt O75460).
Assay [20] has as its target TGF-beta receptor type-1 ; TGFBR1 ; P36897 (Homo sapiens, UniProt P36897).
Setting [21] is: read-out: BAY-1143572 (10 µM) / %Intensity relative to DMSO.
Where [22] appears, read: read-out: BAY-1251152 (10 µM) / %Intensity relative to DMSO.

Read-outs that look alike come from different tables or passages of the source.

Serine/threonine-protein kinase RIO2 ; RIOK2 ; Q9BVS4, sequence (Q9BVS4 whole entry, one chain of several): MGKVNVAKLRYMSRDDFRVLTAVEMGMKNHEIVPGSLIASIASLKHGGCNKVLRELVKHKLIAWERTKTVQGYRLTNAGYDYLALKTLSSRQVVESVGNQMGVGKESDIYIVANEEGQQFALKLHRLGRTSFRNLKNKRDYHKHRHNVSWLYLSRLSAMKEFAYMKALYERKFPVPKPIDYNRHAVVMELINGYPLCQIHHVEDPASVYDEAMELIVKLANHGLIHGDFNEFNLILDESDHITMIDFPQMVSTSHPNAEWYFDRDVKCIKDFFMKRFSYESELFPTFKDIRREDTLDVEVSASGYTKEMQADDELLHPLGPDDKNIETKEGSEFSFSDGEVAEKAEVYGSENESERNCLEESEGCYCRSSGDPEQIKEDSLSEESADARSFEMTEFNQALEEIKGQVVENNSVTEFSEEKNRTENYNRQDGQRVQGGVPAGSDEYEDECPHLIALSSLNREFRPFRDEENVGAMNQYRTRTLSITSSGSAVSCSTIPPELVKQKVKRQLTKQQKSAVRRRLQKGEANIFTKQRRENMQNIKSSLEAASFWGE
TGF-beta receptor type-1 ; TGFBR1 ; P36897, sequence (P36897 whole entry): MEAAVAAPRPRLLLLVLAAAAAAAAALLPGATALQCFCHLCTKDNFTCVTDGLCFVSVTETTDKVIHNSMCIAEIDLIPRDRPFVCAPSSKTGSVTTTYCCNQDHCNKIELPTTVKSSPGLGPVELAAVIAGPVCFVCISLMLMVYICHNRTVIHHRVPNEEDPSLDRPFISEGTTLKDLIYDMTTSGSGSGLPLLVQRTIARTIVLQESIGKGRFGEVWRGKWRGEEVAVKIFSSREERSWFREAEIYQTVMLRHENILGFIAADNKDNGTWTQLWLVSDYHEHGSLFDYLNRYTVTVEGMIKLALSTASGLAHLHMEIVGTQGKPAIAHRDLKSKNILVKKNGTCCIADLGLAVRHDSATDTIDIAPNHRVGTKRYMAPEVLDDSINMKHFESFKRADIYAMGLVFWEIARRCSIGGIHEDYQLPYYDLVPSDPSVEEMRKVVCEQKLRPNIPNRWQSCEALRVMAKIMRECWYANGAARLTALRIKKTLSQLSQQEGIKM
Isoform 3 of Mitogen-activated protein kinase 8 ; MAPK8 ; P45983-3, sequence (P45983 whole entry, canonical isoform): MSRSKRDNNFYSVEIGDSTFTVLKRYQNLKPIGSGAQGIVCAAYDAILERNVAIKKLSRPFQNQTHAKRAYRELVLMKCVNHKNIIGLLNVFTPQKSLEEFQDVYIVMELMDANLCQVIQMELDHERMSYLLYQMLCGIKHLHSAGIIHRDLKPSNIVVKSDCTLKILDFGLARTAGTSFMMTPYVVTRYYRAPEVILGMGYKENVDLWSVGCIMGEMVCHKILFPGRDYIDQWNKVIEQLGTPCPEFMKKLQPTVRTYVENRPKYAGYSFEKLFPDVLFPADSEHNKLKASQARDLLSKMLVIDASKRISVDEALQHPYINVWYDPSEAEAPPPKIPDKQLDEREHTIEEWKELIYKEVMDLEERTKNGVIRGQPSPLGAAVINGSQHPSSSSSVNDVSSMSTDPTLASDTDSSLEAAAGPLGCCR
Serine/threonine-protein kinase LATS1 ; LATS1 ; O95835, sequence (O95835 whole entry, one chain of several): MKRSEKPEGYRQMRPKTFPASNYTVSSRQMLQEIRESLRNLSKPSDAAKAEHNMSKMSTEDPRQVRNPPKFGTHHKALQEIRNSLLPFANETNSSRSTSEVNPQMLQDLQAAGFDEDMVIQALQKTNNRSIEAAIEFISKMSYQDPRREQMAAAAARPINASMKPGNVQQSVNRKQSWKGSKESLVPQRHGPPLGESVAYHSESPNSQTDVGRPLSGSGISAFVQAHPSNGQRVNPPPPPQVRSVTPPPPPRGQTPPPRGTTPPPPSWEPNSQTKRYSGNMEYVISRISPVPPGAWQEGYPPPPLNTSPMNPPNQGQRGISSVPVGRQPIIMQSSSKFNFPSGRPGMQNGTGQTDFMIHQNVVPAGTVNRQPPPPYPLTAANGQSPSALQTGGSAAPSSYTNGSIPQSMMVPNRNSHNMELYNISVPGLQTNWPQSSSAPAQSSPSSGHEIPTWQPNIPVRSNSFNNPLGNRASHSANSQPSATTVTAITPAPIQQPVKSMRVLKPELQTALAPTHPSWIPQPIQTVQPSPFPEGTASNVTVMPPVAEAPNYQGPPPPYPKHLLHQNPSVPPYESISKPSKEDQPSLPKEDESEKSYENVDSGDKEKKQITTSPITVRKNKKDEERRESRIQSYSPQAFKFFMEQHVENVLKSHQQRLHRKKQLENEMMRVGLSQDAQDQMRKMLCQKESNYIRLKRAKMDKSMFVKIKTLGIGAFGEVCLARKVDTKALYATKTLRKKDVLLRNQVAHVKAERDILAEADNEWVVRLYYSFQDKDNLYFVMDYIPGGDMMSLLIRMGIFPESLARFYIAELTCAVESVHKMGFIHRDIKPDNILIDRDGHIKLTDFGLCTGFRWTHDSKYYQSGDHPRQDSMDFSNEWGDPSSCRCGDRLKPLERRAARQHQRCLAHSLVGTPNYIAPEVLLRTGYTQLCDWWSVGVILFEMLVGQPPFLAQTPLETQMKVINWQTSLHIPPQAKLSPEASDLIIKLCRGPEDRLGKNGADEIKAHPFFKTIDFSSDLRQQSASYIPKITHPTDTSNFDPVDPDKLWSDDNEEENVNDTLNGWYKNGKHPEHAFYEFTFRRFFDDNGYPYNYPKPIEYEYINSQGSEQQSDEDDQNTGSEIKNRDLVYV
Mitogen-activated protein kinase kinase kinase 3 ; MAP3K3 ; Q99759, sequence (Q99759 whole entry): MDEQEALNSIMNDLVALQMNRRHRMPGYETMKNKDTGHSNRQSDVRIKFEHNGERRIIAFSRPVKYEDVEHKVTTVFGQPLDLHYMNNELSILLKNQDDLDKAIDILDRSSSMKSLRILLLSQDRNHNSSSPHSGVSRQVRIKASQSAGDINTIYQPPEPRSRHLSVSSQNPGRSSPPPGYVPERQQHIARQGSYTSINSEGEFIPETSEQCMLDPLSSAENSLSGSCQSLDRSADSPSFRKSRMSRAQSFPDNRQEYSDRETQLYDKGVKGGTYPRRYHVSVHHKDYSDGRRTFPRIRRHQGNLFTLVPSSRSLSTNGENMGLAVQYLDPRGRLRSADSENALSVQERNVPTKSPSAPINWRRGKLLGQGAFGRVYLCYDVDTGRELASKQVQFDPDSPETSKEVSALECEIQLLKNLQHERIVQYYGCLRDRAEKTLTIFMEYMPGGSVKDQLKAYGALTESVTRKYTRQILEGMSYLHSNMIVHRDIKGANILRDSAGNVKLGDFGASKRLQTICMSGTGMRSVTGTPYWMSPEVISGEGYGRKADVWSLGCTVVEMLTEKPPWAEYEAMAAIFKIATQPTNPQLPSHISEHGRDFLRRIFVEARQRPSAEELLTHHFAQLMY
Isoform 2 of Proto-oncogene tyrosine-protein kinase Src ; SRC ; P12931-2, sequence (P12931 whole entry, canonical isoform): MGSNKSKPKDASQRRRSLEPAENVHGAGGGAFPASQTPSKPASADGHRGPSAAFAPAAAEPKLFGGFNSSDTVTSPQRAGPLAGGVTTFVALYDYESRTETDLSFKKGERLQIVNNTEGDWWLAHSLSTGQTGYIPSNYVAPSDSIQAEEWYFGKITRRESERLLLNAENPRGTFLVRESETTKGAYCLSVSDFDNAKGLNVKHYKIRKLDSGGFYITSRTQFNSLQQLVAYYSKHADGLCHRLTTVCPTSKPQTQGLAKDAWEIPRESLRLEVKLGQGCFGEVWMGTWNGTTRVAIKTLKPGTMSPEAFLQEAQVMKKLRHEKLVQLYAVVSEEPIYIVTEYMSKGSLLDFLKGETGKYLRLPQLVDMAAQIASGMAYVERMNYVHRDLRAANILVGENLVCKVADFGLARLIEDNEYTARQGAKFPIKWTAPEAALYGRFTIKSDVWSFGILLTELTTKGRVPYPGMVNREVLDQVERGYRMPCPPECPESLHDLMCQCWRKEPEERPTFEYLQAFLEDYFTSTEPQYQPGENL
Ephrin type-B receptor 4 ; EPHB4 ; P54760, sequence (P54760 whole entry, canonical isoform): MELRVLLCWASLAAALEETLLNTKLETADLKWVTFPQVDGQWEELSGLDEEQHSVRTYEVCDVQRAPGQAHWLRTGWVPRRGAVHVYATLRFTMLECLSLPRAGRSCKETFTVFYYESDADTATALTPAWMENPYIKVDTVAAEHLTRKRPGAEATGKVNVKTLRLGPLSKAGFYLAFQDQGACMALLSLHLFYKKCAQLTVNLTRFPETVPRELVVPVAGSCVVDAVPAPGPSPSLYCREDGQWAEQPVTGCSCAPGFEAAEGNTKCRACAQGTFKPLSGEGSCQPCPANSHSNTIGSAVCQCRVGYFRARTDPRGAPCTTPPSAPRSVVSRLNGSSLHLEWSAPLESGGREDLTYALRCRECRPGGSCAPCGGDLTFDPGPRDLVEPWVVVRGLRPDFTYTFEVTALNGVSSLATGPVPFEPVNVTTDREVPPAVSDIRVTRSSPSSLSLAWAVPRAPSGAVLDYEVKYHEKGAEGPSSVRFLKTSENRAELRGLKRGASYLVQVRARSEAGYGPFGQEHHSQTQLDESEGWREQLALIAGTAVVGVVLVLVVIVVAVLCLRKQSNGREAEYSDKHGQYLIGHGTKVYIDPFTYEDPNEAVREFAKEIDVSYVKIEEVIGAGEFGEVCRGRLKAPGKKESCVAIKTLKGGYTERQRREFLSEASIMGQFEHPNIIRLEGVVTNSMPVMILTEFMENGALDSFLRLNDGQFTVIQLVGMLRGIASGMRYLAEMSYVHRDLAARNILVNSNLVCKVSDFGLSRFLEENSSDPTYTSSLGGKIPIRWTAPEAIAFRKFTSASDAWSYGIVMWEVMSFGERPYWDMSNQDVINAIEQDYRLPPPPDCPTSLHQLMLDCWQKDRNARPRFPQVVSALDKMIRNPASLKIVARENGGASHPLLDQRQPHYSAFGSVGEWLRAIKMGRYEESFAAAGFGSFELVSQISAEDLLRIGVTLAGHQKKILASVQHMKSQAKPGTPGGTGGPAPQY

In the case of `COc1cc(F)ccc1-c1ncnc(Nc2cccc(C[S@](C)(=N)=O)c2)n1` [BAY-1143572], the remaining activity at 10 µM in assay [1] (setting [21]) turned out to be 102%; in assay [2] (setting [21]), 99.7%; in assay [3] (setting [21]), 94.1%; in [4] (setting [21]) it was 116%; in assay [5] (setting [21]), 80.9%; in [6] (setting [21]), 102%. Also, the remaining activity at 10 µM in [7] (setting [21]) was found to be 141%; in assay [8] (setting [21]), 98.2%; in [9] (setting [21]), 104%; in assay [10] (setting [21]), 120%; in [11] (setting [21]) it was 119%; in assay [12] (setting [21]), 97%. The remaining activity at 10 µM in [13] (setting [21]) was 128%; in assay [14] (setting [21]) it was 155%; in [15] (setting [21]), 118%; in assay [16] (setting [21]), 105%; in assay [17] (setting [21]), 119%; in [18] (setting [21]), 123%. Also, the remaining activity at 10 µM in assay [19] (setting [21]) stood at 133%; in [20] (setting [21]), 115%.
Regarding `COc1cc(F)ccc1-c1cc(Nc2cc(CS(C)(=N)=O)ccn2)ncc1F` (stereo not shown) [BAY-1251152], the remaining activity at 10 µM was 101% in assay [1] (setting [22]); 109% in [2] (setting [22]); 100% in assay [3] (setting [22]); 113% in assay [4] (setting [22]); 85% in assay [5] (setting [22]); 112% in assay [6] (setting [22]). Also, the remaining activity at 10 µM in assay [7] (setting [22]) was determined as 128%; in assay [8] (setting [22]) it was 101%; in assay [9] (setting [22]), 96.8%; in assay [10] (setting [22]), 114%; in assay [11] (setting [22]), 124%; in assay [12] (setting [22]), 87.9%. Further, the remaining activity at 10 µM worked out at 125% in assay [13] (setting [22]); 154% in assay [14] (setting [22]); 114% in [15] (setting [22]); 110% in [16] (setting [22]); 129% in [17] (setting [22]); 111% in [18] (setting [22]). Also, the remaining activity at 10 µM in assay [19] (setting [22]) amounted to 131%; in assay [20] (setting [22]), 114%.
